According to ChEMBL document CHEMBL4229534, “Amelioration of mechanism-based inactivation of CYP3A4 by a H-PGDS inhibitor” (Bioorg Med Chem Lett, 2018):

Legend:
[1] = target: Hematopoietic prostaglandin D synthase (Homo sapiens, UniProt O60760); test: Inhibition of HPGDS (unknown origin)
CYP3A4 [2] = target: T1, CYP3A4 (Homo sapiens, UniProt P08684); test: Inhibition of CYP3A4 in human liver microsomes assessed as residual activity using midazolam as substrate relative to control; type: ADME; design: concentration or dose not given beside the values; details: probe midazolam
CYP3A4 [3] = target: T1, CYP3A4; test: Inhibition of CYP3A4 in human liver microsomes assessed as residual activity using testosterone as substrate relative to control; type: ADME; design: concentration or dose not given beside the values; details: probe testosterone
Cytochrome P450 3A4 [4] = target: T2, Cytochrome P450 3A4 (Homo sapiens, UniProt P08684); test: Mechanism based inactivation of recombinant human CYP3A4 assessed as apparent partition ratio by measuring ratio of number of inactivator molecules that get metabolized to number of enzyme molecules inactivated using midazolam as substrate; type: ADME
Cytochrome P450 3A4 [5] = target: T2, Cytochrome P450 3A4; test: Mechanism based inactivation of recombinant human CYP3A4 assessed as apparent partition ratio by measuring ratio of number of inactivator molecules that get metabolized to number of enzyme molecules inactivated using testosterone as substrate; type: ADME
CYP3A4 [6] = target: T1, CYP3A4; test: (§1) Inhibition of recombinant human CYP3A4 assessed as residual activity using midazolam as substrate relative to control; type: ADME; details: recombinant human CYP3A4, probe midazolam
CYP3A4 [7] = target: T1, CYP3A4; test: (§2) Inhibition of recombinant human CYP3A4 assessed as residual activity using testosterone as substrate relative to control; type: ADME; details: recombinant human CYP3A4, probe testosterone
Cytochrome P450 3A4 [8] = target: T2, Cytochrome P450 3A4; test: Mechanism based inactivation of CYP3A4 in human liver microsomes assessed as apparent partition ratio by measuring ratio of number of inactivator molecules that get metabolized to number of enzyme molecules inactivated using testosterone as substrate; type: ADME
Cytochrome P450 3A4 [9] = target: T2, Cytochrome P450 3A4; test: Mechanism based inactivation of CYP3A4 in human liver microsomes assessed as apparent partition ratio by measuring ratio of number of inactivator molecules that get metabolized to number of enzyme molecules inactivated using midazolam as substrate; type: ADME
Cytochrome P450 3A4 [10] = target: T2, Cytochrome P450 3A4; test: as §1; type: ADME; details: recombinant enzyme
Cytochrome P450 3A4 [11] = target: T2, Cytochrome P450 3A4; test: as §2; type: ADME; details: recombinant enzyme

Chain of Hematopoietic prostaglandin D synthase (O60760 whole entry): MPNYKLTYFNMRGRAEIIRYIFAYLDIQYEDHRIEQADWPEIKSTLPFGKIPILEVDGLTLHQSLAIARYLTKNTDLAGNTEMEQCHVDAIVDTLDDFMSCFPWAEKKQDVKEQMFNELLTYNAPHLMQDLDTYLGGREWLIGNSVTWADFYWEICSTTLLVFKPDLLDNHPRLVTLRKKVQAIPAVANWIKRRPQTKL
T1 sequence (P08684 whole entry): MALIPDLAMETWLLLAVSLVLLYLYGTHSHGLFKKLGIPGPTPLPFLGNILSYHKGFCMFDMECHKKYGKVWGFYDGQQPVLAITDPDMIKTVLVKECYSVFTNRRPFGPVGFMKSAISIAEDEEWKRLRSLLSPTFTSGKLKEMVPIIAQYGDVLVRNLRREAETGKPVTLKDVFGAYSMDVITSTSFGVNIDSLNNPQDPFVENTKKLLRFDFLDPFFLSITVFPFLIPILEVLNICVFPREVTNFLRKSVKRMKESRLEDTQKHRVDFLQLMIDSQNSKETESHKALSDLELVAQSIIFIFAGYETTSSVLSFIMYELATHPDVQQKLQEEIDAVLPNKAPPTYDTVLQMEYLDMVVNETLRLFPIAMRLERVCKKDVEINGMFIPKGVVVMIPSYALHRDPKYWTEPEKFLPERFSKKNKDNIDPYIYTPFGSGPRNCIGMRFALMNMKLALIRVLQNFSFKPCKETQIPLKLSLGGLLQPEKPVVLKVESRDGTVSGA
T2 sequence (P08684 whole entry): as above

SMILES	IC50 [1]	activity (CYP3A4 [2])	activity (CYP3A4 [3])	Ratio (Cytochrome P450 3A4 [4])	Ratio (Cytochrome P450 3A4 [5])	activity (CYP3A4 [6])	activity (CYP3A4 [7])	Ratio (Cytochrome P450 3A4 [8])	Ratio (Cytochrome P450 3A4 [9])	activity (Cytochrome P450 3A4 [10])	activity (Cytochrome P450 3A4 [11])
Cc1nc(-c2ccccn2)ncc1C(=O)Nn1ccc2c(C(F)(F)F)cccc21	10 nM	100%	91%	1119	842	57%	59%				
Cc1nc(-c2ccccn2)ncc1C(=O)Nn1cc(C)c2cc(F)ccc21		30%	20%					160 to 167	170 to 173		
Cc1nc(-c2ccccn2)ncc1C(=O)Nn1cc(C)c2nc(F)ccc21	6 nM	79%	91%								
COc1ccc2c(n1)c(C)cn2NC(=O)c1cnc(-c2ccccn2)nc1C	3 nM	57%	> 70%	326	460	19%	22%		338		
CC(C)(CO)NS(=O)(=O)c1cccc(CNC(=O)c2cnc(-c3cccc(F)c3)nc2)c1	23 nM										
Cc1nc(-c2ncccn2)ncc1C(=O)Nn1ccc2c(C(F)(F)F)cccc21	8 nM	95%	90%							Not Active	Not Active
CNS(=O)(=O)c1cccc(CNC(=O)c2cnc(-c3cccc(F)c3)nc2C)c1	9.5 nM										
